Reference: patent US12128029B2, “Treatment of idiopathic pulmonary fibrosis” (VICORE PHARMA AB, priority 2022, dated 2024)

Tests used:
subjects with IPF = test: Phase II, multi-centre, open-label, single-arm trial of the safety, efficacy and pharmacokinetics of C21 in subjects with IPF; details: for mean change in FVC from baseline: C21 100 mg b.i.d. orally (sodium salt capsules), observed data, FIG. 1
Protocol: The primary objective of the study is/was to investigate the safety of C21, 200 mg daily dose (100 mg b.i.d.) administered orally to subjects with IPF. The secondary objectives are/were to evaluate the effect on lung function decline of C21 and the pharmacokinetics of C21 at the same daily dose. Exploratory objectives include the investigation of a range of laboratory parameters as potential biomarkers of inflammation and fibrosis.
The primary endpoint of the trial is the nature and frequency of adverse events occurring over the trial period.
Secondary endpoints included changes from baseline in: • FVC (defined as the maximum amount of air that can be forcibly exhaled from the lungs after fully inhaling) at Weeks 12, 24 and 36; • plasma concentration of C21 and derived PK parameters evaluated in a sub-set of subjects.
C21 has been administered twice daily to the subjects for 36 weeks as follows: • morning dose: two 50 mg capsules (100 mg C21 or placebo) to be taken with a glass of water after minimum 2 hours fasting; and • afternoon/evening dose: two 50 mg capsules (100 mg C21 or placebo) to be taken with a glass of water after minimum 2 hours fasting. Subjects are required not to eat anything for 1 hour after taking the study drug.
The patients were enrolled to receive C21 (100 mg b.i.d.) for 36 weeks in total.

[1] = test system: model of obstructive lung disease (specifically COPD); details: cited from earlier work
[2] = Sensitivity of C21 and salts to light and water; format: physicochemical; details: C21 and salts thereof
patients with IPF = details: over the period of a year; cited from earlier work
[3] = interim analysis, 21 subjects, C21 100 mg b.i.d.

Compound: CCCCOC(=O)NS(=O)(=O)c1sc(CC(C)C)cc1-c1ccc(Cn2ccnc2)cc1 [C21, N-butyloxycarbonyl-3-(4-imidazol-1-ylmethylphenyl)-5-iso-butylthiophene-2-sulfonamide]
- mean change in FVC from baseline (subjects with IPF; 24 weeks): +250 mL
- difference in mean FVC change versus expected mean decline in untreated patients (subjects with IPF; 24 weeks, expected decline -120 mL, based on previously published IPF trials): +371 mL
- mean change in FVC from baseline (subjects with IPF; 36 weeks): +750 mL
- difference in mean FVC change versus expected mean decline in untreated patients (subjects with IPF; 36 weeks, expected decline -180 mL): +930 mL
- gastrointestinal signals (subjects with IPF; [3]): no gastrointestinal signals
- overall safety profile (subjects with IPF; [3]): no safety profile concerns
- related serious adverse events (subjects with IPF; [3]): no related serious adverse events
- deaths in the ongoing trial (subjects with IPF; reported to be due to COVID-19 and not related to C21): 1
- p value of slope (change in FVC scaled to 24 weeks, by visit, observed cases) versus expected mean in untreated patients (subjects with IPF; week 28): 0.012
- p value of slope (change in FVC scaled to 24 weeks, by visit, observed cases) versus expected mean in untreated patients (subjects with IPF; week 32): 0.032
- p value of slope (change in FVC scaled to 24 weeks, by visit, observed cases) versus expected mean in untreated patients (subjects with IPF; week 36): 0.016
- effect on cigarette smoke-induced emphysema [1]: prevented cigarette smoke-induced emphysema
- effect on lung functions [1]: improved lung functions
- sensitivity to the combined presence of light and water [2]: extreme sensitivity

Compound: COC(=O)c1ccc2c(c1)NC(=O)/C2=C(\Nc1ccc(N(C)C(=O)CN2CCN(C)CC2)cc1)c1ccccc1 [nintedanib]
- reduction in the rate of decline in lung function (FVC measurements) (patients with IPF): approximately 50%

Compound: Cc1ccc(=O)n(-c2ccccc2)c1 [pirfenidone]
- reduction in the rate of decline in lung function (FVC measurements) (patients with IPF): approximately 50%
